# Experimental data taken from patent publication US9073858B2, “Methods of targeted drug development” (priority 2010, dated 2015).
# Like-named read-outs stand apart in the source and are kept apart here.
# Columns and labels:
# [1] = target: T1, EGFR (Homo sapiens, UniProt P00533); test: EGFR in-cell Western (ICW) screening protocol; assay type: cell-based; set-up: unit not given here; settings: initial screen
# T1 construct: endogenous in cells; host or cells: A431 cells (ATCC CRL-1555)
# Summary of the method: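 Serum-starved cells treated with compound 4 h at 37 °C, then stimulated with EGF (20 or 0 ng/ml solution added) in its continued presence. In-cell Western on fixed cells: phospho-EGFR (800 channel) normalised to total EGFR (700 channel), % inhibition calculated against EGF-stimulated and unstimulated no-compound wells.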
# [2] = tested on: epithelial carcinoma A431 cell line; test: MTT Cell Proliferation Assay, A431 cell line; assay type: cell-based; settings: for IC50: Homo sapiens
# Summary of the method: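 Cells plated overnight, then exposed 3 days at 37 °C, 5% CO2 to compound in growth medium with 0.5% FBS and 0.5% DMSO final (0.5% DMSO as control).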
# T1 sequence (P00533 25-1210): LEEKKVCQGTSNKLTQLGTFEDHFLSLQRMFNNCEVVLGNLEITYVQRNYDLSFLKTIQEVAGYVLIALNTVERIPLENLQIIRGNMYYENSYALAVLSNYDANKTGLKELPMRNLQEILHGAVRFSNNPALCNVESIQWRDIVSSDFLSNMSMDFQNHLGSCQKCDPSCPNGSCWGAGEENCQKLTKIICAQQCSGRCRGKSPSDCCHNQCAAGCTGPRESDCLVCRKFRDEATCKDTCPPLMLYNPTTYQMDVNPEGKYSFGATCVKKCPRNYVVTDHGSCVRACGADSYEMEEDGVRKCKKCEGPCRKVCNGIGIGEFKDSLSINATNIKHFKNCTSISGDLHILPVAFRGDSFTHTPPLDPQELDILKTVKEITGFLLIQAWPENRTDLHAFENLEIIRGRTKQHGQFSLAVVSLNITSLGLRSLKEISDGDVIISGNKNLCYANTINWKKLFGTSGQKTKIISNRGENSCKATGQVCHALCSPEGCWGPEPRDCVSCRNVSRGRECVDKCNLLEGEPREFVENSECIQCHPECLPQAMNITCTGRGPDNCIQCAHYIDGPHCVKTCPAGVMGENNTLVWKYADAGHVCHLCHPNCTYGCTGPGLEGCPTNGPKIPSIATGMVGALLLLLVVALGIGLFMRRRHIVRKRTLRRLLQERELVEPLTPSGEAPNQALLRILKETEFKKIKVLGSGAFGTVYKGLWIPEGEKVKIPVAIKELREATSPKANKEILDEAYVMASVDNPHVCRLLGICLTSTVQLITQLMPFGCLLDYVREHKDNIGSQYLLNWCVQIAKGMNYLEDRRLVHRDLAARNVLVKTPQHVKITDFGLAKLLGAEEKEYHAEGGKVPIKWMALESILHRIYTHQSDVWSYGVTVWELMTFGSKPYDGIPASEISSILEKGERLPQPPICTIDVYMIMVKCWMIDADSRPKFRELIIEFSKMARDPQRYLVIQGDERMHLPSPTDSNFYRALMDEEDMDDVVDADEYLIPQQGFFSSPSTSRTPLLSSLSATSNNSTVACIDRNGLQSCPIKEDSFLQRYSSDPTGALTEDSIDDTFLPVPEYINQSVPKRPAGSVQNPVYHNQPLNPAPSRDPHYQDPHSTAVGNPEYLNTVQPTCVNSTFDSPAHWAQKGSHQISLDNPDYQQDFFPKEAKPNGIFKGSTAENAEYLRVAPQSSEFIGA
smiles,measurement,setting,value
Oc1c(C(Nc2ccccn2)c2ccc(C(F)(F)F)cc2)ccc2cccnc12 (centres unmarked) [compound 10460],ICW Screen,[1],23.17
same,MTT (10 Point follow-up) ratio,"[2]; 10 point follow-up, value in brackets, numerically MDBK over A431",1.34
same,MTT-72 h A431/MDBK (ratio),"[2]; 72 h, value in brackets, numerically MDBK value over A431 value",1.84
same,IC50,"[2]; A-431, 10 point follow-up, first value of pair, read-out: MTT (10 Point follow-up) A431",279 nM
same,IC50,"[2]; A-431, 72 h, 72 h, first value of A431/MDBK pair, read-out: MTT-72 h A431",290 nM
